Test results from BigSolDB 2.1.

Q: Which solubility (mole fraction) (in 1,4-dioxane, 298.15 K) does the source give for CCC(CO)(CO)C(=O)O here?
A: Its solubility (mole fraction) is 0.122.

Q: What about the solubility (mole fraction) (in 1,4-dioxane, 303.15 K) of the same molecule?
A: Its solubility (mole fraction) is 0.153.

Q: And the solubility (mole fraction) (in 1,4-dioxane, 308.15 K)?
A: The solubility (mole fraction) was 0.176.

Q: What about the solubility (mole fraction) (in 1,4-dioxane, 313.15 K) of the same molecule?
A: Its solubility (mole fraction) is 0.201.

Q: What about the solubility (mole fraction) (in 1,4-dioxane, 318.15 K) of the same molecule?
A: Its solubility (mole fraction) is 0.217.

Q: What about the solubility (mole fraction) (in 1,4-dioxane, 323.15 K) of the same molecule?
A: Its solubility (mole fraction) is 0.259.

Q: What about the solubility (mole fraction) (in 1,4-dioxane, 328.15 K) of the same molecule?
A: Its solubility (mole fraction) is 0.324.

Q: What about the solubility (mole fraction) (in MIBK, 298.15 K) of the same molecule?
A: Its solubility (mole fraction) is 0.0218.

Q: And the solubility (mole fraction) (in MIBK, 303.15 K)?
A: Its solubility (mole fraction) is 0.0297.

Q: What about the solubility (mole fraction) (in MIBK, 308.15 K) of the same molecule?
A: Its solubility (mole fraction) is 0.0362.

Q: What about the solubility (mole fraction) (in MIBK, 313.15 K) of the same molecule?
A: The solubility (mole fraction) was 0.0433.

Q: What about the solubility (mole fraction) (in MIBK, 318.15 K) of the same molecule?
A: The solubility (mole fraction) was 0.0523.

Q: What about the solubility (mole fraction) (in MIBK, 323.15 K) of the same molecule?
A: Its solubility (mole fraction) is 0.0575.

Q: What about the solubility (mole fraction) (in MIBK, 328.15 K) of the same molecule?
A: The solubility (mole fraction) was 0.07.

Q: What about the solubility (mole fraction) (in MIBK, 333.15 K) of the same molecule?
A: The solubility (mole fraction) was 0.077.

Q: And the solubility (mole fraction) (in MIBK, 338.15 K)?
A: Its solubility (mole fraction) is 0.0891.

Q: What about the solubility (mole fraction) (in MIBK, 343.15 K) of the same molecule?
A: The solubility (mole fraction) was 0.11.

Q: And the solubility (mole fraction) (in MIBK, 345.15 K)?
A: The solubility (mole fraction) was 0.121.

Q: What about the solubility (mole fraction) (in MIBK, 348.15 K) of the same molecule?
A: The solubility (mole fraction) was 0.132.

Q: What about the solubility (mole fraction) (in MIBK, 350.15 K) of the same molecule?
A: The solubility (mole fraction) was 0.156.

Q: What about the solubility (mole fraction) (in MIBK, 353.15 K) of the same molecule?
A: Its solubility (mole fraction) is 0.184.

Q: And the solubility (mole fraction) (in cyclopentyl methyl ether, 298.15 K)?
A: Its solubility (mole fraction) is 0.0121.

Q: What about the solubility (mole fraction) (in cyclopentyl methyl ether, 303.15 K) of the same molecule?
A: Its solubility (mole fraction) is 0.013.

Q: What about the solubility (mole fraction) (in cyclopentyl methyl ether, 308.15 K) of the same molecule?
A: Its solubility (mole fraction) is 0.0168.

Q: What about the solubility (mole fraction) (in cyclopentyl methyl ether, 313.15 K) of the same molecule?
A: Its solubility (mole fraction) is 0.0208.

Q: What about the solubility (mole fraction) (in cyclopentyl methyl ether, 318.15 K) of the same molecule?
A: The solubility (mole fraction) was 0.0266.

Q: What about the solubility (mole fraction) (in cyclopentyl methyl ether, 323.15 K) of the same molecule?
A: The solubility (mole fraction) was 0.032.

Q: And the solubility (mole fraction) (in cyclopentyl methyl ether, 328.15 K)?
A: The solubility (mole fraction) was 0.0374.

Q: And the solubility (mole fraction) (in cyclopentyl methyl ether, 333.15 K)?
A: The solubility (mole fraction) was 0.0425.

Q: And the solubility (mole fraction) (in cyclopentyl methyl ether, 338.15 K)?
A: Its solubility (mole fraction) is 0.054.

Q: What about the solubility (mole fraction) (in cyclopentyl methyl ether, 343.15 K) of the same molecule?
A: The solubility (mole fraction) was 0.0674.

Q: What about the solubility (mole fraction) (in cyclopentyl methyl ether, 345.15 K) of the same molecule?
A: The solubility (mole fraction) was 0.0749.

Q: What about the solubility (mole fraction) (in cyclopentyl methyl ether, 348.15 K) of the same molecule?
A: The solubility (mole fraction) was 0.0917.

Q: And the solubility (mole fraction) (in cyclopentyl methyl ether, 350.15 K)?
A: The solubility (mole fraction) was 0.107.

Q: What about the solubility (mole fraction) (in cyclopentyl methyl ether, 353.15 K) of the same molecule?
A: The solubility (mole fraction) was 0.133.

Q: What about the solubility (mole fraction) (in ethyl acetate, 298.15 K) of the same molecule?
A: Its solubility (mole fraction) is 0.0111.

Q: What about the solubility (mole fraction) (in ethyl acetate, 303.15 K) of the same molecule?
A: Its solubility (mole fraction) is 0.0184.

Q: And the solubility (mole fraction) (in ethyl acetate, 308.15 K)?
A: Its solubility (mole fraction) is 0.0228.

Q: And the solubility (mole fraction) (in ethyl acetate, 313.15 K)?
A: The solubility (mole fraction) was 0.0281.

Q: What about the solubility (mole fraction) (in ethyl acetate, 318.15 K) of the same molecule?
A: The solubility (mole fraction) was 0.0338.

Q: And the solubility (mole fraction) (in ethyl acetate, 323.15 K)?
A: The solubility (mole fraction) was 0.0443.

Q: And the solubility (mole fraction) (in ethyl acetate, 328.15 K)?
A: The solubility (mole fraction) was 0.0539.

Q: What about the solubility (mole fraction) (in ethyl acetate, 333.15 K) of the same molecule?
A: The solubility (mole fraction) was 0.0612.

Q: And the solubility (mole fraction) (in ethyl acetate, 338.15 K)?
A: Its solubility (mole fraction) is 0.069.

Q: What about the solubility (mole fraction) (in gamma-butyrolactone, 298.15 K) of the same molecule?
A: The solubility (mole fraction) was 0.0688.

Q: What about the solubility (mole fraction) (in gamma-butyrolactone, 303.15 K) of the same molecule?
A: Its solubility (mole fraction) is 0.0859.

Q: And the solubility (mole fraction) (in gamma-butyrolactone, 308.15 K)?
A: Its solubility (mole fraction) is 0.105.

Q: What about the solubility (mole fraction) (in gamma-butyrolactone, 313.15 K) of the same molecule?
A: The solubility (mole fraction) was 0.136.

Q: And the solubility (mole fraction) (in gamma-butyrolactone, 318.15 K)?
A: Its solubility (mole fraction) is 0.151.

Q: And the solubility (mole fraction) (in gamma-butyrolactone, 323.15 K)?
A: Its solubility (mole fraction) is 0.173.

Q: What about the solubility (mole fraction) (in gamma-butyrolactone, 328.15 K) of the same molecule?
A: Its solubility (mole fraction) is 0.212.

Q: What about the solubility (mole fraction) (in gamma-butyrolactone, 333.15 K) of the same molecule?
A: Its solubility (mole fraction) is 0.232.

Q: And the solubility (mole fraction) (in gamma-butyrolactone, 338.15 K)?
A: Its solubility (mole fraction) is 0.263.

Q: What about the solubility (mole fraction) (in n-butyl acetate, 298.15 K) of the same molecule?
A: Its solubility (mole fraction) is 0.0119.

Q: What about the solubility (mole fraction) (in n-butyl acetate, 303.15 K) of the same molecule?
A: The solubility (mole fraction) was 0.0125.

Q: What about the solubility (mole fraction) (in n-butyl acetate, 308.15 K) of the same molecule?
A: The solubility (mole fraction) was 0.0129.

Q: What about the solubility (mole fraction) (in n-butyl acetate, 313.15 K) of the same molecule?
A: The solubility (mole fraction) was 0.0153.

Q: And the solubility (mole fraction) (in n-butyl acetate, 318.15 K)?
A: Its solubility (mole fraction) is 0.0228.

Q: And the solubility (mole fraction) (in n-butyl acetate, 323.15 K)?
A: The solubility (mole fraction) was 0.0317.

Q: What about the solubility (mole fraction) (in n-butyl acetate, 328.15 K) of the same molecule?
A: The solubility (mole fraction) was 0.0379.

Q: And the solubility (mole fraction) (in n-butyl acetate, 333.15 K)?
A: Its solubility (mole fraction) is 0.0477.

Q: And the solubility (mole fraction) (in n-butyl acetate, 338.15 K)?
A: The solubility (mole fraction) was 0.0619.

Q: And the solubility (mole fraction) (in n-butyl acetate, 343.15 K)?
A: The solubility (mole fraction) was 0.0768.

Q: And the solubility (mole fraction) (in n-butyl acetate, 345.15 K)?
A: The solubility (mole fraction) was 0.093.

Q: What about the solubility (mole fraction) (in n-butyl acetate, 348.15 K) of the same molecule?
A: Its solubility (mole fraction) is 0.111.

Q: And the solubility (mole fraction) (in n-butyl acetate, 350.15 K)?
A: The solubility (mole fraction) was 0.132.

Q: And the solubility (mole fraction) (in n-butyl acetate, 353.15 K)?
A: The solubility (mole fraction) was 0.169.

Q: And the solubility (mole fraction) (in toluene, 298.15 K)?
A: The solubility (mole fraction) was 0.00039.

Q: What about the solubility (mole fraction) (in toluene, 303.15 K) of the same molecule?
A: Its solubility (mole fraction) is 0.00056.

Q: And the solubility (mole fraction) (in toluene, 308.15 K)?
A: The solubility (mole fraction) was 0.00073.

Q: What about the solubility (mole fraction) (in toluene, 313.15 K) of the same molecule?
A: Its solubility (mole fraction) is 0.0008.

Q: What about the solubility (mole fraction) (in toluene, 318.15 K) of the same molecule?
A: Its solubility (mole fraction) is 0.00087.

Q: And the solubility (mole fraction) (in toluene, 323.15 K)?
A: The solubility (mole fraction) was 0.00093.

Q: What about the solubility (mole fraction) (in toluene, 328.15 K) of the same molecule?
A: Its solubility (mole fraction) is 0.00093.

Q: And the solubility (mole fraction) (in toluene, 333.15 K)?
A: The solubility (mole fraction) was 0.00099.

Q: What about the solubility (mole fraction) (in toluene, 338.15 K) of the same molecule?
A: Its solubility (mole fraction) is 0.00105.
